According to PubChem BioAssay AID330 (DTP/NCI, 2004):
Values joined by “and” are separate entries in the source; they are usually repeats but may differ in a detail not shown here. Equal values may be shown once. Inconclusive results and toxic doses are left out. How the source made its calls: active means survival T/C of 150% or more; inactive means T/C below 125% in these data.

Tested on: P388 leukemia ip, CD2F1 mice, survival T/C
Test: NCI In Vivo Anticancer Drug Screen. Data for tumor model P388 Leukemia (intraperitoneal) in CD2F1 (CDF1) mice
Settings: endpoint: median survival time, higher = longer survival
How it was run: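 Mice carrying the transplanted tumor received test compound or vehicle. Survival was recorded in each group, and the value is the treated-group measurement divided by that of the vehicle-treated control group.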

[1] = dose: 50.0 mg/kg/injection, schedule: Q01DX005 (ip), vehicle: saline with Tween-80
[2] = dose: 100.0 mg/kg/injection, schedule: Q01DX005 (ip), vehicle: saline with Tween-80
[3] = dose: 200.0 mg/kg/injection, schedule: Q01DX005 (ip), vehicle: saline with Tween-80
[4] = dose: 60.0 mg/kg/injection, schedule: Q01DX005 (ip), vehicle: saline with Tween-80
[5] = dose: 120.0 mg/kg/injection, schedule: Q01DX005 (ip), vehicle: saline with Tween-80
[6] = dose: 240.0 mg/kg/injection, schedule: Q01DX005 (ip), vehicle: saline with Tween-80
[7] = dose: 50.0 mg/kg/injection, schedule: Q01DX009 (ip), vehicle: saline
[8] = dose: 100.0 mg/kg/injection, schedule: Q01DX009 (ip), vehicle: saline
[9] = dose: 50.0 mg/kg/injection, schedule: Q04DX003 (ip), vehicle: saline with Tween-80
[10] = dose: 100.0 mg/kg/injection, schedule: Q04DX003 (ip), vehicle: saline with Tween-80
[11] = dose: 200.0 mg/kg/injection, schedule: Q04DX003 (ip), vehicle: saline with Tween-80
[12] = dose: 50.0 mg/kg/injection, schedule: Q01DX009 (ip), vehicle: saline with Tween-80
[13] = dose: 100.0 mg/kg/injection, schedule: Q01DX009 (ip), vehicle: saline with Tween-80
[14] = dose: 200.0 mg/kg/injection, schedule: Q01DX009 (ip), vehicle: saline with Tween-80
[15] = dose: 50.0 mg/kg/injection, schedule: Q01DX005 (ip), vehicle: Klucel (hydroxypropylcellulose) (HPC)
[16] = dose: 100.0 mg/kg/injection, schedule: Q01DX005 (ip), vehicle: Klucel (hydroxypropylcellulose) (HPC)
[17] = dose: 200.0 mg/kg/injection, schedule: Q01DX005 (ip), vehicle: Klucel (hydroxypropylcellulose) (HPC)
[18] = dose: 50.0 mg/kg/injection, schedule: Q01DX009 (ip), vehicle: Klucel (hydroxypropylcellulose) (HPC)
[19] = dose: 100.0 mg/kg/injection, schedule: Q01DX009 (ip), vehicle: Klucel (hydroxypropylcellulose) (HPC)

Measured: T/C

CC(=O)c1c(-c2ccc(Cl)cc2)c(-c2ccc(Cl)cc2)nn(C(C)CO)c1=O (stereo unspecified)
inactive: [1] 103 % of control | [2] 100 % of control | [3] 97 % of control

CCCCN(CCCC)CCC(C)(O)c1cccc2ccccc12 (stereo unspecified)
inactive: dose: 25.0 mg/kg/injection, schedule: Q01DX005 (ip), vehicle: saline with Tween-80 98 % of control | [1] 108 % of control | [2] 92 % of control

CCC[CH2][Sn]([CH2]CCC)([N]=C=S)[N]=C=S
inactive: dose: 0.78 mg/kg/injection, schedule: Q01DX009 (ip), vehicle: saline 108 % of control | dose: 1.56 mg/kg/injection, schedule: Q01DX009 (ip), vehicle: saline 100 % of control | dose: 3.12 mg/kg/injection, schedule: Q01DX009 (ip), vehicle: saline 100 % of control

Cc1cc(C)c2c(=O)c3c(oc2c1)O[C@@](C)(CO)C[C@@H]3c1ccccc1
inactive: [4] 101 % of control | [5] 98 % of control | [6] 106 % of control

NC(=S)c1ccc(C=Nc2ccc(C(N)=S)cc2)cc1
inactive: dose: 100.0 mg/kg/injection, schedule: Q01DX001 (ip), vehicle: Klucel (hydroxypropylcellulose) (HPC) 87 % of control | dose: 200.0 mg/kg/injection, schedule: Q01DX001 (ip), vehicle: Klucel (hydroxypropylcellulose) (HPC) 91 % of control | dose: 400.0 mg/kg/injection, schedule: Q01DX001 (ip), vehicle: Klucel (hydroxypropylcellulose) (HPC) 88 % of control

CCOC(=O)c1ccc([O-])c([I+]c2ccccc2)c1
inactive: dose: 50.0 mg/kg/injection, schedule: Q04DX003 (ip), vehicle: Klucel (hydroxypropylcellulose) (HPC) 100 % of control | dose: 100.0 mg/kg/injection, schedule: Q04DX003 (ip), vehicle: Klucel (hydroxypropylcellulose) (HPC) 100 % of control | dose: 200.0 mg/kg/injection, schedule: Q04DX003 (ip), vehicle: Klucel (hydroxypropylcellulose) (HPC) 101 % of control

FC(F)(F)c1cc(NC(=S)SCc2ccc(Cl)cc2)ccc1Cl
inactive: dose: 50.0 mg/kg/injection, schedule: Q01DX009 (ip), vehicle: suspension in saline 103 % of control | dose: 100.0 mg/kg/injection, schedule: Q01DX009 (ip), vehicle: suspension in saline 90 % of control | dose: 200.0 mg/kg/injection, schedule: Q01DX009 (ip), vehicle: suspension in saline 93 % of control

Nc1nc[nH]c1-c1noc(=O)[nH]1
inactive: dose: 12.5 mg/kg/injection, schedule: Q01DX009 (ip), vehicle: saline 102 % of control | dose: 25.0 mg/kg/injection, schedule: Q01DX009 (ip), vehicle: saline 108 % of control | [7] 104 % of control and 112 % of control | [8] 110 % of control

Cc1ccc2nc3ccccc3cc2c1
inactive: dose: 25.0 mg/kg/injection, schedule: Q04DX003 (ip), vehicle: saline with Tween-80 104 % of control | [9] 100 % of control | [10] 95 % of control | [11] 99 % of control

CCOC(=O)c1cc(OCC)c(OCC)c(OCC)c1N
inactive: [12] 100 % of control | [13] 100 % of control | [14] 111 % of control

CCOc1cc2c(cc1C(CC)c1ccc(OCc3ccccc3)cc1)OCO2 (stereo unspecified)
inactive: [15] 92 % of control | [16] 87 % of control

Cc1nc(N)n[nH]1
inactive: [7] 102 % of control | [8] 109 % of control | dose: 200.0 mg/kg/injection, schedule: Q01DX009 (ip), vehicle: saline 105 % of control | dose: 400.0 mg/kg/injection, schedule: Q01DX009 (ip), vehicle: saline 96 % of control

O=S(=O)(C1=NOC(c2ccccc2)C1)c1ccccc1 (stereo unspecified)
inactive: [15] 99 % of control | [16] 95 % of control | [17] 93 % of control

CC1C2C1C1C3NN=CC3C2n2c(=O)n(-c3ccccc3)c(=O)n21 (stereo unspecified)
inactive: [15] 99 % of control | [16] 100 % of control | [17] 105 % of control

Nc1[nH]c(=S)ncc1-c1ccccc1Cl
inactive: [4] 98 % of control | [5] 95 % of control | [6] 93 % of control

CC(=O)Nn1cnc2[nH]ncc2c1=O
inactive: dose: 60.0 mg/kg/injection, schedule: Q01DX005 (ip), vehicle: saline 102 % of control | dose: 120.0 mg/kg/injection, schedule: Q01DX005 (ip), vehicle: saline 101 % of control | dose: 240.0 mg/kg/injection, schedule: Q01DX005 (ip), vehicle: saline 101 % of control

CCOC(=O)C[CH2][Sn]([Cl])([Cl])[Cl]
inactive: dose: 100.0 mg/kg/injection, schedule: Q04DX003 (ip), vehicle: saline 100 % of control | dose: 200.0 mg/kg/injection, schedule: Q04DX003 (ip), vehicle: saline 103 % of control

COc1ccc(C=C2C(=O)C=CC2=O)cc1
inactive: dose: 1.25 mg/kg/injection, schedule: Q04DX002 (ip), vehicle: saline with Tween-80 106 % of control | dose: 2.5 mg/kg/injection, schedule: Q04DX002 (ip), vehicle: saline with Tween-80 97 % of control | dose: 5.0 mg/kg/injection, schedule: Q04DX002 (ip), vehicle: saline with Tween-80 99 % of control

O=C1OC2(CCCCC2)OC(=O)C1=Cc1ccc([N+](=O)[O-])s1
inactive: [10] 114 % of control | [11] 105 % of control

C[n+]1c(-c2cccc(OCCCCCCCOc3cccc(-c4c5cc(N)ccc5c5ccc(N)cc5[n+]4C)c3)c2)c2cc(N)ccc2c2ccc(N)cc21
inactive: dose: 0.05 mg/kg/injection, schedule: Q01DX009 (ip), vehicle: water 123 % of control | dose: 25.0 micrograms/kg/injection, schedule: Q01DX009 (ip), vehicle: water 103 % of control | dose: 50.0 micrograms/kg/injection, schedule: Q01DX009 (ip), vehicle: water 118 % of control | dose: 100.0 micrograms/kg/injection, schedule: Q01DX009 (ip), vehicle: water 120 % of control | dose: 200.0 micrograms/kg/injection, schedule: Q01DX009 (ip), vehicle: water 100 % of control

O=S(=O)(Nc1nccs1)c1ccc(NCc2c3ccccc3nc3cc(Cl)ccc23)cc1
inactive: [1] 88 % of control | [2] 88 % of control | [3] 97 % of control

CCOC(=O)OCC1OC(OC(C)=O)C(OC(C)=O)C(OC(=O)OCC)C1OC(=O)OCC (stereo unspecified)
inactive: dose: 12.5 mg/kg/injection, schedule: Q01DX009 (ip), vehicle: water 95 % of control | dose: 25.0 mg/kg/injection, schedule: Q01DX009 (ip), vehicle: water 99 % of control | dose: 50.0 mg/kg/injection, schedule: Q01DX009 (ip), vehicle: water 91 % of control | dose: 100.0 mg/kg/injection, schedule: Q01DX009 (ip), vehicle: water 99 % of control | dose: 200.0 mg/kg/injection, schedule: Q01DX009 (ip), vehicle: water 90 % of control

NC1=NN(O)C2=CC(F)C=CC2=N1 (stereo unspecified)
inactive: [18] 103 % of control and 91 % of control | [19] 101 % of control and 114 % of control and 92 % of control | dose: 200.0 mg/kg/injection, schedule: Q01DX009 (ip), vehicle: Klucel (hydroxypropylcellulose) (HPC) 100 % of control and 91 % of control | dose: 400.0 mg/kg/injection, schedule: Q01DX009 (ip), vehicle: Klucel (hydroxypropylcellulose) (HPC) 105 % of control

CCC(=O)O[C@H]1CC[C@H]2[C@@H]3C[C@H](F)C4=CC(=O)CC[C@]4(C)[C@H]3CC[C@]12C
inactive: [12] 100 % of control | [13] 100 % of control | [14] 100 % of control

Cc1cc(=O)c2ccc3c(c2[nH]1)Oc1ccc2c(=O)cc(C)[nH]c2c1O3
inactive: [1] 98 % of control | [2] 101 % of control | [3] 98 % of control

FC(F)(F)c1ccc(Cl)c(N=Cc2ccc(C=Nc3cc(C(F)(F)F)ccc3Cl)cc2)c1
inactive: [18] 91 % of control | [19] 98 % of control

CC(C)OC(=O)Cn1c(=O)c2nnnn2c2ccccc21
inactive: dose: 100.0 mg/kg/injection, schedule: Q04DX002 (ip), vehicle: Klucel (hydroxypropylcellulose) (HPC) 93 % of control | dose: 200.0 mg/kg/injection, schedule: Q04DX002 (ip), vehicle: Klucel (hydroxypropylcellulose) (HPC) 98 % of control | dose: 400.0 mg/kg/injection, schedule: Q04DX002 (ip), vehicle: Klucel (hydroxypropylcellulose) (HPC) 93 % of control

O=C(/C=C/c1ccc2c(c1)OCO2)c1ccc(Cl)cc1
inactive: [12] 86 % of control | [13] 100 % of control | [14] 95 % of control

S=c1[nH]nc(-c2ccccc2)n1C1CCCCC1
inactive: [9] 97 % of control | [10] 100 % of control | [11] 93 % of control
